Experiments:
primate [1] = details: Subchronic oral toxicity in nonrodent, Gavage/Intubation, dose end: 42 day, group: systemic, systemic / clinical chemistry / [other] / [other] + systemic / clinical chemistry / cytochrome p450, nos / cytochrome p450, nos + systemic…
primate [2] = details: Sub-acute repeat dose toxicity; Oral; Gavage/Intubation; dose end: 7 day; group: systemic; systemic / in life observation / clinical signs / abnormal feces + systemic / hematology / erythrocyte (rbc) count differential / …
primate [3] = details: Sub-acute repeat dose toxicity; Oral; Gavage/Intubation; dose end: 14 day; group: systemic; systemic / clinical chemistry / [other] / [other] + systemic / clinical chemistry / testosterone / testosterone + systemic / hematology / …
rat [4] = details: Sub-acute repeat dose toxicity, Oral, Gavage/Intubation, dose end: 7 day, group: systemic
rat [5] = details: Sub-acute repeat dose toxicity; Oral; Gavage/Intubation; dose end: 14 day; group: systemic; systemic / clinical chemistry / protein / protein + systemic / hematology / erythrocyte (rbc) count differential / erythrocyte (rbc) + …
[6] = systemic / clinical chemistry / protein / protein + systemic / hematology / neutrophils / neutrophils + systemic / in life observation / …
[7] = systemic / in life observation / food consumption / food consumption + systemic / clinical chemistry / cytochrome p450, nos / cytochrome …

## Cc1oc(-c2ccccc2)nc1CCOc1cccc2c1ccn2CCC(=O)O
Primate [1]
  LEL: 100 mg/kg/day
  LOAEL: > 100 mg/kg/day
  NEL: < 100 mg/kg/day
  NOAEL: ≥ 100 mg/kg/day
Primate [2]
  LEL: 100 mg/kg/day
  LOAEL: > 2000 mg/kg/day
  NEL: < 100 mg/kg/day
  NOAEL: ≥ 2000 mg/kg/day
Primate [3]
  LEL: 100 mg/kg/day
  LOAEL: > 2000 mg/kg/day
  NEL: < 100 mg/kg/day
  NOAEL: ≥ 2000 mg/kg/day
Rat [4]; [6]
  LOAEL: > 2000 mg/kg/day
  NOAEL: ≥ 2000 mg/kg/day
Rat [4]; [7]
  LEL: 100 mg/kg/day
  NEL: < 100 mg/kg/day
Rat [5]
  LEL: 10 mg/kg/day
  LOAEL: > 1000 mg/kg/day
  NEL: < 10 mg/kg/day
  NOAEL: ≥ 1000 mg/kg/day

Source: EPA's ToxRefDB 2
